Assay results taken from PubChem BioAssay (NCI).
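Method: 48-hour compound exposure of cells in 96-well plates, five concentrations, linear interpolation of endpoints. TGI: concentration producing complete growth inhibition.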

Columns and labels:
Test in all cases: inhibition of tumour cell growth, NCI panel, 48 h
OVCAR-3 ovarian = test system: OVCAR-3 ovarian
HL-60(TB) leukemia = test system: HL-60(TB) leukemia
MDA-N = test system: MDA-N
UO-31 renal = test system: UO-31 renal
ACHN renal = test system: ACHN renal
SK-MEL-5 melanoma = test system: SK-MEL-5 melanoma
SN12C renal = test system: SN12C renal
SR leukemia = test system: SR leukemia
A498 renal = test system: A498 renal
EKVX NSCLC = test system: EKVX NSCLC
OVCAR-5 ovarian = test system: OVCAR-5 ovarian
NCI-H460 lung = test system: NCI-H460 lung
MDA-MB-231 breast = test system: MDA-MB-231 breast
RXF 393 renal = test system: RXF 393 renal
T-47D breast = test system: T-47D breast
PC-3 prostate = test system: PC-3 prostate
HOP-92 NSCLC = test system: HOP-92 NSCLC
SF-295 CNS = test system: SF-295 CNS
DU-145 prostate = test system: DU-145 prostate
NCI-H23 lung = test system: NCI-H23 lung
COLO 205 colon = test system: COLO 205 colon
MOLT-4 leukemia = test system: MOLT-4 leukemia
BT-549 breast = test system: BT-549 breast
HT29 colon = test system: HT29 colon
SK-MEL-2 melanoma = test system: SK-MEL-2 melanoma
K-562 leukemia = test system: K-562 leukemia
UACC-257 melanoma = test system: UACC-257 melanoma
KM12 colon = test system: KM12 colon
HS 578T breast = test system: HS 578T breast
HCT-116 colon = test system: HCT-116 colon
MDA-MB-435 = test system: MDA-MB-435
HCT-15 colon = test system: HCT-15 colon
M14 melanoma = test system: M14 melanoma
SK-OV-3 ovarian = test system: SK-OV-3 ovarian
MCF7 breast = test system: MCF7 breast
786-0 renal = test system: 786-0 renal
OVCAR-4 ovarian = test system: OVCAR-4 ovarian
NCI-H226 lung = test system: NCI-H226 lung
A549 NSCLC = test system: A549 NSCLC
UACC-62 melanoma = test system: UACC-62 melanoma
HOP-62 NSCLC = test system: HOP-62 NSCLC
MALME-3M melanoma = test system: MALME-3M melanoma
TK-10 renal = test system: TK-10 renal
SNB-19 CNS = test system: SNB-19 CNS
RPMI-8226 leukemia = test system: RPMI-8226 leukemia
SK-MEL-28 melanoma = test system: SK-MEL-28 melanoma
CAKI-1 renal = test system: CAKI-1 renal
CCRF-CEM leukemia = test system: CCRF-CEM leukemia
IGROV1 ovarian = test system: IGROV1 ovarian
U251 CNS = test system: U251 CNS
OVCAR-8 ovarian = test system: OVCAR-8 ovarian
HCC-2998 colon = test system: HCC-2998 colon
SW-620 colon = test system: SW-620 colon
NCI/ADR-RES ovarian = test system: NCI/ADR-RES ovarian
SNB-75 CNS = test system: SNB-75 CNS
LOX IMVI melanoma = test system: LOX IMVI melanoma
SF-268 CNS = test system: SF-268 CNS
SF-539 CNS = test system: SF-539 CNS

Measured: TGI

COc1cc([N+](=O)[O-])ccc1NC1=CC(=O)CCC1
> 100 µM: OVCAR-3 ovarian | HL-60(TB) leukemia | MDA-N | UO-31 renal | ACHN renal | SK-MEL-5 melanoma | SN12C renal | SR leukemia | A498 renal | EKVX NSCLC | OVCAR-5 ovarian | NCI-H460 lung | MDA-MB-231 breast | RXF 393 renal | T-47D breast | PC-3 prostate | HOP-92 NSCLC | SF-295 CNS | DU-145 prostate | NCI-H23 lung | COLO 205 colon | MOLT-4 leukemia | BT-549 breast | HT29 colon | SK-MEL-2 melanoma | K-562 leukemia | UACC-257 melanoma | KM12 colon | HS 578T breast | HCT-116 colon | MDA-MB-435 | HCT-15 colon | M14 melanoma | SK-OV-3 ovarian | MCF7 breast | 786-0 renal | OVCAR-4 ovarian | NCI-H226 lung | A549 NSCLC | UACC-62 melanoma | HOP-62 NSCLC | MALME-3M melanoma | TK-10 renal | SNB-19 CNS | RPMI-8226 leukemia | SK-MEL-28 melanoma | CAKI-1 renal | CCRF-CEM leukemia | IGROV1 ovarian | U251 CNS | OVCAR-8 ovarian | HCC-2998 colon | SW-620 colon | NCI/ADR-RES ovarian | SNB-75 CNS | LOX IMVI melanoma | SF-268 CNS | SF-539 CNS
